Results as given in patent US20100279941A1, “CD36 MODULATION AND USES THEREOF” (priority 2009, published 2010).

System: CD36^+/+ and CD36^−/− mice
Assay: Myocardial metabolic rate of glucose by μPET with [18F]-FDG
Assay type: in vivo
Details: 6 hours reperfusion; in words
Method: Experimental model of IHD: Transient left coronary artery ligation in vivo. Mice were subjected to a transient LCAL surgery as described before, with minor modifications [Tarnayski et al., 2004]. Mice were injected i.p. with buprenorphine (0.05 mg/kg) and placed in an induction chamber with inhalation anesthesia comprised of 3% isoflurane mixed with 100% oxygen. Mice were intubated with a blunt ended 20-gauge catheter into the trachea via the mouth and mechanically ventilated at a tidal volume of 7 ml/kg at 130 respirations/min with a MiniVent™ mouse ventilator (model 845, Harvard Apparatus, Saint-Laurent, QC, Canada). Anesthesia was maintained with 1.5-2% isoflurane and the animals were kept warm using electrical heating pads during the surgical procedure. The chest was opened by a horizontal incision through the skin and muscle layers at the third intercostal space exposing the left side of the heart. […] Visual blanching distal to the coronary occlusion confirmed myocardial ischaemia. Lidocaine (6 mg/kg) was administered i.p. just following occlusion and prior to reperfusion. […]
Imaging Data Analysis. For [^11C]-acetate images, dynamic series of 25 frames each were sorted out whereas 27 frames were used for ^18FDG and ^18FTHA imaging, and were reconstructed and analyzed using multicompartmental analysis [Menard et al., 2009] or the Patlak method for FTHA [Patlak and Blasberg, 1985]. […]

**Q.** With “HAIC-2MeDTrp-DLys-Trp-DPhe-Lys-NH2 [EP 80317]” as the substance, how does the “myocardial metabolic rate of glucose (MMRG)” value read?
**A.** not modulated
